This is an account of results in patent US20190134005A1 (BioMarin Pharmaceutical Inc., priority 2016, published 2019).

This experiment concerns the target T1, human CGT (Homo sapiens, UniProt Q16880).
T1 sequence (Q16880 21-541): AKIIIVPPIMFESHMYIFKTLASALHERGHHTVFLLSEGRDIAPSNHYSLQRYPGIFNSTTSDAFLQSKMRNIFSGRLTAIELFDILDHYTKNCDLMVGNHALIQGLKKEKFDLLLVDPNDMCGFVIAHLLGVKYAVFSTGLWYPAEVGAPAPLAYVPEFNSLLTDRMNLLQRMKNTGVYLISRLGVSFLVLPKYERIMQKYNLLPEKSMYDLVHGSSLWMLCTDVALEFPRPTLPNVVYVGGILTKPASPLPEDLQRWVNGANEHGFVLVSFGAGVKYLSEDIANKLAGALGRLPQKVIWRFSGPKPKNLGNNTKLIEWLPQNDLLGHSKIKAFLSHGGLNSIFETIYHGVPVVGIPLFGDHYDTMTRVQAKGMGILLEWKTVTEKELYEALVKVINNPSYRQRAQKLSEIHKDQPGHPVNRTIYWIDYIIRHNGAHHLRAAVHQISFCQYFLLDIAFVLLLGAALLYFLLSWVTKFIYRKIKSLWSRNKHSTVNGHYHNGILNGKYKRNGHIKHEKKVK
The experiment is described as follows: Assay 1: CGT Enzymatic Assay (RapidFire/MS/MS, 0.01% Tween 80). It is filed as biochemical. As to conditions: Table 1, Compounds of Formula (I) and Formula (II); CGT enzymatic assay; read-out: IC50.

With `CCC[C@H]1N(c2ccc(Br)cc2)C(=O)N(c2ccc(Br)cc2)C1(O)c1cccc(C)c1` (stereo partly drawn) [Compound 96-2, (5R)-1,3-bis(4-bromophenyl)-4-hydroxy-5-propyl-4-(m-tolyl)imidazolidin-2-one], the IC50 – broadly, the concentration that inhibits the measured activity by half – was less than 1000 nM. The figure for `Cc1csc(C2(O)C(C)N(c3ccc(Br)cc3)C(=O)N2c2ccc(Br)cc2)c1` (stereo not drawn) [Compound 97, 1,3-bis(4-bromophenyl)-4-hydroxy-5-methyl-4-(4-methylthiophen-2-yl)imidazolidin-2-one] is 1000 to 10000 nM; for `Cc1csc(C2(O)[C@H](C)N(c3ccc(Br)cc3)C(=O)N2c2ccc(Br)cc2)c1` (stereo partly drawn) [Compound 97-1, (5S)-1,3-bis(4-bromophenyl)-4-hydroxy-5-methyl-4-(4-methylthiophen-2-yl)imidazolidin-2-one] it is 1000 to 10000 nM. The same measure for `Cc1csc(C2(O)[C@@H](C)N(c3ccc(Br)cc3)C(=O)N2c2ccc(Br)cc2)c1` (stereo partly drawn) [Compound 97-2, (5R)-1,3-bis(4-bromophenyl)-4-hydroxy-5-methyl-4-(4-methylthiophen-2-yl)imidazolidin-2-one]: 1000 to 10000 nM.

`O=C1N(c2ccc(Cl)cc2)CC(O)(c2cc(Cl)cc(Br)c2)N1c1ccc(Cl)cc1` (stereo not drawn) [Compound 98, 4-(3-bromo-5-chlorophenyl)-1,3-bis(4-chlorophenyl)-4-hydroxyimidazolidin-2-one]: the half-inhibitory concentration (IC50) lay in the range of 1000 to 10000 nM. In the case of `CC1N(c2ccc(Cl)cc2)C(=O)N(c2ccc(Cl)cc2)C1(O)c1cccc(C#N)c1` (stereo not drawn) [Compound 99, 3-(1,3-bis(4-chlorophenyl)-4-hydroxy-5-methyl-2-oxoimidazolidin-4-yl)benzonitrile], the 50% inhibitory concentration (IC50) was less than 1000 nM. Take `CCC[C@@H]1N(c2ccc(Br)cc2)C(=O)N(c2ccc(Br)cc2)C1(O)c1cccc(C(F)(F)F)c1` (stereo partly drawn) [Compound 100-1, (5S)-1,3-bis(4-bromophenyl)-4-hydroxy-5-propyl-4-(3-(trifluoromethyl)phenyl)imidazolidin-2-one]: the IC50 is less than 1000 nM. The figure for `CCC[C@H]1N(c2ccc(Br)cc2)C(=O)N(c2ccc(Br)cc2)C1(O)c1cccc(C(F)(F)F)c1` (stereo partly drawn) [Compound 100-2, (5R)-1,3-bis(4-bromophenyl)-4-hydroxy-5-propyl-4-(3-(trifluoromethyl)phenyl)imidazolidin-2-one] is less than 1000 nM. The same measure for `CCCC1N(c2ccc(Cl)cc2)C(=O)N(c2ccc(Cl)cc2)C1(O)c1cccc(C#N)c1` (stereo not drawn) [Compound 101, 3-(1,3-bis(4-chlorophenyl)-4-hydroxy-2-oxo-5-propylimidazolidin-4-yl)benzonitrile]: less than 1000 nM; for `CCC[C@H]1N(c2ccc(Cl)cc2)C(=O)N(c2ccc(Cl)cc2)C1(O)c1cccc(C#N)c1` (stereo partly drawn) [Compound 101-2, 3-((5R)-1,3-bis(4-chlorophenyl)-4-hydroxy-2-oxo-5-propylimidazolidin-4-yl)benzonitrile]: less than 1000 nM; for `Cc1cc(C#N)cc(C2(O)CN(c3ccc(Cl)cc3)C(=O)N2c2ccc(Cl)cc2)c1` (stereo not drawn) [Compound 102, 3-(1,3-bis(4-chlorophenyl)-4-hydroxy-2-oxoimidazolidin-4-yl)-5-methylbenzonitrile]: 1000 to 10000 nM. Regarding `CC#Cc1cccc(C2(O)C(C)N(c3ccc(Cl)cc3)C(=O)N2c2ccc(Cl)cc2)c1` (stereo not drawn) [Compound 103, 1,3-bis(4-chlorophenyl)-4-hydroxy-5-methyl-4-(3-(prop-1-yn-1-yl)phenyl)imidazolidin-2-one], the IC50 was less than 1000 nM.

As to `CC#Cc1cccc(C2(O)[C@H](C)N(c3ccc(Cl)cc3)C(=O)N2c2ccc(Cl)cc2)c1` (stereo partly drawn) [Compound 103-1, (5S)-1,3-bis(4-chlorophenyl)-4-hydroxy-5-methyl-4-(3-(prop-1-yn-1-yl)phenyl)imidazolidin-2-one], the 50% inhibitory concentration (IC50) is less than 1000 nM.

Consider `CC#Cc1cccc(C2(O)[C@@H](C)N(c3ccc(Cl)cc3)C(=O)N2c2ccc(Cl)cc2)c1` (stereo partly drawn) [Compound 103-2, (5R)-1,3-bis(4-chlorophenyl)-4-hydroxy-5-methyl-4-(3-(prop-1-yn-1-yl)phenyl)imidazolidin-2-one], for which the IC50 is less than 1000 nM. The same measure for `CCc1ccc(N2C(=O)N(c3ccc(CC)cc3)C(O)(c3cccc(C#N)c3)C2C)cc1` (stereo not drawn) [Compound 104, 3-(1,3-bis(4-ethylphenyl)-4-hydroxy-5-methyl-2-oxoimidazolidin-4-yl)benzonitrile]: less than 1000 nM; for `Cc1ccc(N2C(=O)N(c3ccc(C)cc3)C(O)(c3cccc(C#N)c3)C2C)cc1` (stereo not drawn) [Compound 105, 3-(4-hydroxy-5-methyl-2-oxo-1,3-di-p-tolylimidazolidin-4-yl)benzonitrile]: less than 1000 nM; for `CCC1N(c2ccc(Cl)cc2)C(=O)N(c2ccc(Cl)cc2)C1(O)c1cccc(C#N)c1` (stereo not drawn) [Compound 106, 3-(1,3-bis(4-chlorophenyl)-5-ethyl-4-hydroxy-2-oxoimidazolidin-4-yl)benzonitrile]: less than 1000 nM.

`Cc1cccc(N2C(=O)N(c3cccc(C)c3)C(O)(c3cccc(OC(F)(F)F)c3)C2C)c1` (stereo not drawn) [Compound 107, 4-hydroxy-5-methyl-1,3-di-m-tolyl-4-(3-(trifluoromethoxy)phenyl)imidazolidin-2-one]: the IC50 was less than 1000 nM. The figure for `C#Cc1cc(Cl)cc(C2(O)CN(c3ccc(Cl)cc3)C(=O)N2c2ccc(Cl)cc2)c1` (stereo not drawn) [Compound 108, 4-(3-chloro-5-ethynylphenyl)-1,3-bis(4-chlorophenyl)-4-hydroxyimidazolidin-2-one] is 1000 to 10000 nM; for `O=C1N(c2ccc(Cl)cc2)C(c2cccs2)C(O)(c2ccccc2)N1c1ccc(Cl)cc1` (stereo not drawn) [Compound 109, 1,3-bis(4-chlorophenyl)-4-hydroxy-4-phenyl-5-(thiophen-2-yl)imidazolidin-2-one] it is 1000 to 10000 nM. The same measure for `N#Cc1cc(Cl)cc(C2(O)CN(c3ccc(Br)cc3)C(=O)N2c2ccc(Cl)cc2)c1` (stereo not drawn) [Compound 110, 3-(1-(4-bromophenyl)-3-(4-chlorophenyl)-4-hydroxy-2-oxoimidazolidin-4-yl)-5-chlorobenzonitrile]: less than 1000 nM; for `N#Cc1ccc(N2CC(O)(c3ccccc3)N(c3ccc(C#N)cc3)C2=O)cc1` (stereo not drawn) [Compound 111, 4,4′-(4-hydroxy-2-oxo-4-phenylimidazolidine-1,3-diyl)dibenzonitrile]: greater than 50000 nM; for `CCC[C@@H]1N(c2ccc(Br)cc2)C(=O)N(c2ccc(Br)cc2)C1(O)c1cccc(OC(F)(F)F)c1` (stereo partly drawn) [Compound 112-1, (5S)-1,3-bis(4-bromophenyl)-4-hydroxy-5-propyl-4-(3-(trifluoromethoxy)phenyl)imidazolidin-2-one]: less than 1000 nM. The figure for `CCC[C@H]1N(c2ccc(Br)cc2)C(=O)N(c2ccc(Br)cc2)C1(O)c1cccc(OC(F)(F)F)c1` (stereo partly drawn) [Compound 112-2, (5R)-1,3-bis(4-bromophenyl)-4-hydroxy-5-propyl-4-(3-(trifluoromethoxy)phenyl)imidazolidin-2-one] is less than 1000 nM.

Regarding `N#Cc1cc(Cl)cc(C2(O)CN(c3ccc(Br)cc3)C(=O)N2c2ccc(Br)cc2)c1` (stereo not drawn) [Compound 113, 3-(1,3-bis(4-bromophenyl)-4-hydroxy-2-oxoimidazolidin-4-yl)-5-chlorobenzonitrile], the IC50 lay in the range of 1000 to 10000 nM. The same measure for `CCCC1N(c2ccc(Cl)cc2)C(=O)N(c2ccc(Cl)cc2)C1(O)c1cccc(Cl)c1` (stereo not drawn) [Compound 114, 4-(3-chlorophenyl)-1,3-bis(4-chlorophenyl)-4-hydroxy-5-propylimidazolidin-2-one]: less than 1000 nM; for `CCC[C@@H]1N(c2ccc(Cl)cc2)C(=O)N(c2ccc(Cl)cc2)C1(O)c1cccc(Cl)c1` (stereo partly drawn) [Compound 114-1, (5S)-4-(3-chlorophenyl)-1,3-bis(4-chlorophenyl)-4-hydroxy-5-propylimidazolidin-2-one]: less than 1000 nM. The same measure for `CCC[C@H]1N(c2ccc(Cl)cc2)C(=O)N(c2ccc(Cl)cc2)C1(O)c1cccc(Cl)c1` (stereo partly drawn) [Compound 114-2, (5R)-4-(3-chlorophenyl)-1,3-bis(4-chlorophenyl)-4-hydroxy-5-propylimidazolidin-2-one]: less than 1000 nM; for `O=C1N(c2ccc(Br)cc2)C(C2CC2)C(O)(c2ccccc2)N1c1ccc(Br)cc1` (stereo not drawn) [Compound 115, 1,3-bis(4-bromophenyl)-5-cyclopropyl-4-hydroxy-4-phenylimidazolidin-2-one]: less than 1000 nM; for `O=C1N(c2ccc(Br)cc2)[C@@H](C2CC2)C(O)(c2ccccc2)N1c1ccc(Br)cc1` (stereo partly drawn) [Compound 115-1, (5S)-1,3-bis(4-bromophenyl)-5-cyclopropyl-4-hydroxy-4-phenylimidazolidin-2-one]: less than 1000 nM. The same measure for `O=C1N(c2ccc(Br)cc2)[C@H](C2CC2)C(O)(c2ccccc2)N1c1ccc(Br)cc1` (stereo partly drawn) [Compound 115-2, (5R)-1,3-bis(4-bromophenyl)-5-cyclopropyl-4-hydroxy-4-phenylimidazolidin-2-one]: less than 1000 nM.

Regarding `CCCCC1N(c2ccc(Cl)cc2)C(=O)N(c2ccc(Cl)cc2)C1(O)c1cccc(C#N)c1` (stereo not drawn) [Compound 116, 3-(5-butyl-1,3-bis(4-chlorophenyl)-4-hydroxy-2-oxoimidazolidin-4-yl)benzonitrile], the IC50 is less than 1000 nM. The figure for `CCCC[C@@H]1N(c2ccc(Cl)cc2)C(=O)N(c2ccc(Cl)cc2)C1(O)c1cccc(C#N)c1` (stereo partly drawn) [Compound 116-1, 3-((5S)-5-butyl-1,3-bis(4-chlorophenyl)-4-hydroxy-2-oxoimidazolidin-4-yl)benzonitrile] is less than 1000 nM.
